Results: patent US5191079A, “Quinolinecarboxylic acid derivatives” (priority 1990, dated 1993)
Converted amounts (≈) assume the structure as drawn. Where two headings read alike, the source gives them in different places.

What was measured:
Format in all cases: cell-based
[1] = tested on: Streptococcus pyogenes Cook; experiment: MIC, Experiment 1; conditions: S. pyogenes Cook, Gram +, agar with 5% defibrinated horse blood, read-out: Min. inhib. concentr. (MIC)
Protocol: (§1) The compounds of the present invention (B, E, G, H, M, N, O, P and Q) were each dissolved in dimethylsulfoxide to prepare a solution of 5000 μg/ml in concentration. The compounds of the present invention (I, J and K) and the known compound (Y) were each dissolved in sterilized distilled water to prepare a solution of 5000 μg/ml in concentration. Each solution was diluted with sterilized distilled water to prepare a standard solution with a concentration of each test compound: 1000 μg/ml. The test was carried out by a method as appointed by Japan Society of Chemotherapy [cf. Chemotherapy, 29, 76-79 (1981), TOKYO].
(§2) As to Streptococcus pneumoniae and Streptococcus pyogenes, Brain heart infusion broth (manufactured by DIFCO) was used as the medium for the preculture thereof, and a heart infusion agar medium containing 5% defibrinated horse blood (manufactured by Nissui Seiyaku K. K., Japan) was used as the medium for the measurement of minimum inhibitory concentration (MIC). As to other microorganisms, a sensitivity test broth (manufactured by Nissui Seiyaku K. K.) was used as the medium for the preculture thereof, and a sensitivity test agar medium (manufactured by Nissui Seiyaku K. K.) was used as the medium for the measurement of MIC.

[2] = tested on: Bacillus subtilis ATCC 6633; experiment: MIC, Experiment 1; conditions: ATCC6633, B. subtilis ATCC 6633, Gram +, read-out: Min. inhib. concentr. (MIC)
Protocol: as §1, §2

[3] = tested on: Staphylococcus aureus MS-353; experiment: MIC, Experiment 1; conditions: MS353, S. aureus MS-353, Gram +, read-out: Min. inhib. concentr. (MIC)
Protocol: as §1, §2

[4] = tested on: Enterobacter cloacae 963; experiment: MIC, Experiment 1; conditions: E. cloacae 963, Gram -, read-out: Min. inhib. concentr. (MIC)
Protocol: as §1, §2

[5] = tested on: Proteus mirabilis IFO 3849; experiment: MIC, Experiment 1; conditions: IFO3849, P. mirabilis IFO 3849, Gram -, read-out: Min. inhib. concentr. (MIC)
Protocol: as §1, §2

[6] = tested on: Streptococcus pyogenes Sv; experiment: MIC, Experiment 1; conditions: S. pyogenes Sv, Gram +, agar with 5% defibrinated horse blood, read-out: Min. inhib. concentr. (MIC)
Protocol: as §1, §2

[7] = tested on: Bacillus cereus IAM 1029; experiment: MIC, Experiment 1; conditions: IAM1029, B. cereus IAM 1029, Gram +, read-out: Min. inhib. concentr. (MIC)
Protocol: as §1, §2

[8] = tested on: Streptococcus pneumoniae IID 552; experiment: MIC, Experiment 1; conditions: IID552, S. pneumoniae IID 552, Gram +, agar with 5% defibrinated horse blood, read-out: Min. inhib. concentr. (MIC)
Protocol: as §1, §2

[9] = tested on: Staphylococcus aureus IID 803; experiment: MIC, Experiment 1; conditions: IID803, S. aureus IID 803, Gram +, read-out: Min. inhib. concentr. (MIC)
Protocol: as §1, §2

[10] = tested on: Escherichia coli NIHJ JC-2; experiment: MIC, Experiment 1; conditions: NIHJJC2, E. coli NIHJ JC-2, Gram -, read-out: Min. inhib. concentr. (MIC)
Protocol: as §1, §2

[11] = tested on: Staphylococcus aureus Terajima (IID 670); experiment: MIC, Experiment 1; conditions: IID670, S. aureus Terajima (IID 670), Gram +, read-out: Min. inhib. concentr. (MIC)
Protocol: as §1, §2

[12] = tested on: Streptococcus pyogenes Su; experiment: MIC, Experiment 1; conditions: S. pyogenes Su, Gram +, agar with 5% defibrinated horse blood, read-out: Min. inhib. concentr. (MIC)
Protocol: as §1, §2

[13] = tested on: Staphylococcus aureus Cowan I (IID 975); experiment: MIC, Experiment 1; conditions: IID975, S. aureus Cowan I (IID 975), Gram +, read-out: Min. inhib. concentr. (MIC)
Protocol: as §1, §2

[14] = tested on: Pseudomonas aeruginosa NCTC 10490; experiment: MIC, Experiment 1; conditions: NCTC10490, P. aeruginosa NCTC 10490, Gram -, read-out: Min. inhib. concentr. (MIC)
Protocol: as §1, §2

[15] = tested on: Staphylococcus epidermidis IAM 1296; experiment: MIC, Experiment 1; conditions: IAM1296, S. epidermidis IAM 1296, Gram +, read-out: Min. inhib. concentr. (MIC)
Protocol: The compounds of the present invention ([…] and Q) were each dissolved in dimethylsulfoxide to prepare a solution of 5000 μg/ml in concentration. The compounds of the present invention (I, J and K) and the known compound (Y) were each dissolved in sterilized distilled water to prepare a solution of 5000 μg/ml in concentration. […] The test was carried out by a method as appointed by Japan Society of Chemotherapy [cf. Chemotherapy, 29, 76-79 (1981), TOKYO]. As to Streptococcus pneumoniae and Streptococcus pyogenes, Brain heart infusion broth (manufactured by DIFCO) was used as the medium for the preculture thereof, and a heart infusion agar medium containing 5% defibrinated horse blood (manufactured by Nissui Seiyaku K. K., Japan) was used as the medium for the measurement of minimum inhibitory concentration (MIC). As to other microorganisms, a sensitivity test broth (manufactured by Nissui Seiyaku K. K.) was used as the medium for the preculture thereof, and a sensitivity test agar medium (manufactured by Nissui Seiyaku K. K.) was used as the medium for the measurement of MIC.

[16] = tested on: clinically isolated Enterococcus faecium; experiment: In vitro antibacterial activity against clinical isolates, Experiment 2; conditions: for MIC / MIC90: 25 clinical strains E. faecium; for MIC90: 90% of strains, read-out: MIC90
Protocol: (§3) The above solutions were then diluted with sterilized distilled water to prepare a standard solution with a concentration of the test compound: 1000 μg/ml each.
(§4) For the preculture of each microorganism, there was used as the medium a sensitivity test broth (manufactured by Nissui Seiyaku K. K., Japan), and for the measurement of MIC, there was used a sensitivity test agar medium (manufactured by Nissui Seiyaku K. K.).
(§5) The clinically isolates used above were isolated from Nov. 1988 to Jun. 1989 and were obtained from Research Section, Tokyo Clinical Research Center.

[17] = tested on: clinically isolated Staphylococcus epidermidis; experiment: as above; conditions: Staphylococcus epidermidis, 25 clinical strains S. epidermidis; for MIC50: 50% of strains, read-out: MIC50; for MIC90: 90% of strains, read-out: MIC90
Protocol: as §3, §4, §5

[18] = tested on: clinically isolated Enterococcus faecalis; experiment: as above
Protocol: as §3, §4, §5

[19] = tested on: clinically isolated Staphylococcus aureus; experiment: as above; conditions: for MIC50: 50% of strains, read-out: MIC50
Protocol: as §3, §4, §5

[20] = 25 clinical strains E. faecalis
[21] = 25 clinical strains S. aureus incl. 16 methicillin resistant

CN1Cc2csc3c(C(=O)O)c(=O)c4cc(F)c(N5CCC(N(C)C)CC5)c1c4n23 [Compound (H), 9,1-(methylimino)methano-7-fluoro-8-(4-dimethylaminopiperidino)-5-oxo-5H-thiazolo[3,2-a]quinoline-4-carboxylic acid]
MIC [1]: 0.05 µg/mL (≈ 0.116 µM) | MIC [2]: 0.05 µg/mL (≈ 0.116 µM) | MIC [3]: 0.1 µg/mL (≈ 0.232 µM) | MIC [4]: 0.39 µg/mL (≈ 0.906 µM) | MIC [5]: 0.78 µg/mL (≈ 1.81 µM) | MIC [6]: 0.05 µg/mL (≈ 0.116 µM) | MIC [7]: 0.05 µg/mL (≈ 0.116 µM) | MIC [8]: 0.05 µg/mL (≈ 0.116 µM) | MIC [9]: 0.1 µg/mL (≈ 0.232 µM) | MIC [10]: 0.2 µg/mL (≈ 0.465 µM) | MIC [11]: 0.05 µg/mL (≈ 0.116 µM) | MIC [12]: 0.05 µg/mL (≈ 0.116 µM) | MIC [13]: 0.05 µg/mL (≈ 0.116 µM) | MIC [14]: 0.78 µg/mL (≈ 1.81 µM) | MIC [15]: 0.2 µg/mL (≈ 0.465 µM) | MIC50 [16]: 1.56 µg/mL (≈ 3.62 µM) | MIC [16]: 0.2 to 25 µg/mL (≈ 0.465 to 58.1 µM) | MIC90 [16]: 12.5 µg/mL (≈ 29 µM) | MIC [17]: 0.05 to 3.13 µg/mL (≈ 0.116 to 7.27 µM) | MIC50 [17]: 0.05 µg/mL (≈ 0.116 µM) | MIC90 [17]: 3.13 µg/mL (≈ 7.27 µM) | MIC50 [18]: 0.39 µg/mL (≈ 0.906 µM) | MIC [18, 20]: 0.2 to 6.25 µg/mL (≈ 0.465 to 14.5 µM) | MIC90 ([18]; 25 clinical strains E. faecalis, 90% of strains, read-out: MIC90): 3.13 µg/mL (≈ 7.27 µM) | MIC [19, 21]: 0.05 to 3.13 µg/mL (≈ 0.116 to 7.27 µM) | MIC50 [19, 21]: 0.1 µg/mL (≈ 0.232 µM) | MIC90 ([19]; 25 clinical strains S. aureus incl. 16 methicillin resistant, 90% of strains, read-out: MIC90): 3.13 µg/mL (≈ 7.27 µM)

COC[C@H]1CN(c2c(F)cc3c(=O)c(C(=O)O)c4scc5n4c3c2N(C)C5)CCO1 [Compound (P), 9,1-(Methylimino)methano-7-fluoro-8-[(2R)-2-methoxymethylmorpholino)-5-oxo-5H-thiazolo[3,2-a]quinoline-4-carboxylic acid]
MIC [1]: 0.05 µg/mL (≈ 0.115 µM) | MIC [2]: ≤ 0.006 µg/mL | MIC [3]: 0.025 µg/mL (≈ 0.0577 µM) | MIC [4]: 1.56 µg/mL (≈ 3.6 µM) | MIC [5]: 0.78 µg/mL (≈ 1.8 µM) | MIC [6]: 0.1 µg/mL (≈ 0.231 µM) | MIC [7]: 0.025 µg/mL (≈ 0.0577 µM) | MIC [8]: 0.05 µg/mL (≈ 0.115 µM) | MIC [9]: 0.025 µg/mL (≈ 0.0577 µM) | MIC [10]: 0.2 µg/mL (≈ 0.461 µM) | MIC [11]: 0.05 µg/mL (≈ 0.115 µM) | MIC [12]: 0.05 µg/mL (≈ 0.115 µM) | MIC [13]: 0.006 µg/mL (≈ 0.0138 µM) | MIC [14]: 1.56 µg/mL (≈ 3.6 µM) | MIC [15]: 0.05 µg/mL (≈ 0.115 µM) | MIC50 [16]: 3.13 µg/mL (≈ 7.22 µM) | MIC [16]: 0.2 to 12.5 µg/mL (≈ 0.461 to 28.8 µM) | MIC90 [16]: 12.5 µg/mL (≈ 28.8 µM) | MIC [17]: 0.006 to 0.78 µg/mL (≈ 0.0138 to 1.8 µM) | MIC50 [17]: 0.05 µg/mL (≈ 0.115 µM) | MIC90 [17]: 0.39 µg/mL (≈ 0.9 µM) | MIC90 [18]: 6.25 µg/mL (≈ 14.4 µM) | MIC [18, 20]: 0.1 to 6.25 µg/mL (≈ 0.231 to 14.4 µM) | MIC50 ([18]; 25 clinical strains E. faecalis, 50% of strains, read-out: MIC50): 0.2 µg/mL (≈ 0.461 µM) | MIC90 [19]: 0.78 µg/mL (≈ 1.8 µM) | MIC [19, 21]: 0.006 to 0.78 µg/mL (≈ 0.0138 to 1.8 µM) | MIC50 [19, 21]: 0.013 µg/mL (≈ 0.03 µM)
